Reference: patent US12239132B2, “Compounds and methods for increasing soil nutrient availability” (SOUND AGRICULTURE COMPANY, priority 2018, dated 2025)

Tested on: Bacillus megaterium
Assay: Phosphate solubilization assay with Bacillus megaterium (liquid NBRIP, malachite green)
Type: cell-based
Conditions: 25 ug/mL (solvent 50% acetone), NBRIP, 72 h
Method: In some aspects, a compound disclosed herein, e.g., AB09, stimulates bacterial phosphate solubilization activity. […] Cultures of B. megaterium were grown in media containing only insoluble phosphorus with and without a compound such as AB09. At the start of the experiment, there was no detectable difference of orthophosphate levels in the growth media alone and media supplemented with B. megaterium and/or AB09. Orthophosphate was measured after 72 hours of bacterial growth. Specifically, A 5 mL culture of B. megaterium was seeded from a single colony into Nutrient Broth (NB) and grown overnight in a 30° C. shaker. The cell pellet was collected by centrifugation, washed twice and resuspended in water. The concentration of B. megaterium was measured using a Nanodrop OD600 reading. B. megaterium was inoculated into liquid NBRIP media, which contains insoluble tricalcium phosphate as its sole phosphorus source. The final concentration of B. megaterium in the NBRIP media was OD600=0.02 ([…]). NBRIP media was supplemented with ML in a 1% DMSO solution to a final concentration of 100 ug/ML or 1% DMSO (both were filter sterilized through a 0.2 uM filter). Cell counts at the start of the experiment (0 hours) and at 72 hours post inoculation were measured using dilution plating. At the experiment start and after 72 hours of growth, 1 mL of culture was collected from the culture tubes. The supernatant was collected by centrifugation (5 min at 13,000 rpm). The cleared supernatant was diluted […] in molecular grade water and used for orthophosphate analysis. The remaining 4 mL of supernatant were collected by centrifugation for pH readings. Orthophosphate was measured using the malachite-green phosphate method (BioAssay Systems Malachite Green Phosphate Assay Kit Catalog No: POMG-25H). Briefly, the sample is mixed with a solution of Malachite Green and molybdate, which forms a green complex with free orthophosphate from the sample. Data are quantified on a plate reader at 620 nm. Unknown samples were run with a standard curve of known concentrations of orthophosphate. […] Phosphate solubilization in NBRIP culture media is shown at experiment start (0 h) and after 72 hours of shaking at 30° C. The left axis corresponds to box plots and whisker plots of the concentration of solubilized phosphate in the bacterial supernatant. The right axis corresponds to the pH of the supernatant. n=7 culture tubes for each B. megaterium with and without ML, and n=3 culture tubes for no bacteria with and without AB09. The malachite green phosphate assay was performed in triplicate. […] In some instances, disclosed herein are experimental culture tubes of B. megaterium growing in NBRIP without ML (AB09; leftmost two tubes) and with 100 ug/mL ML (right three tubes).
A strain of Bacillus megaterium (B. megaterium) was isolated from Iowa field soil and confirmed its ability to solubilize phosphorus by observing a cleared zone (or halo) around B. megaterium colonies when grown on solid media (NBRIP+Agar) containing only in insoluble form of phosphorus, Ca3(PO4)2. Cultures of B. megaterium were then grown in liquid NBRIP (containing only insoluble Ca3(PO4)2) with and without AB09. The growth media supernatant was analyzed for orthophosphate at the start of the experiment (0 h) and after 72 hours of growth by the malachite green quantification method.
FIG. 1A illustrates phosphate solubilization in NBRIP culture media at experiment start (0 h) and after 72 hours of shaking at 30° C. The left axis corresponds to box plots and whisker plots of the concentration of available phosphate (orthophosphate) in the bacterial supernatant. […] The malachite green phosphate assay was performed in triplicate. FIG. 1B illustrates an example of experimental culture tubes of B. megaterium growing in NBRIP without AB09 (leftmost two tubes) and with 100 ug/mL AB09 (right three tubes). […]

Row | SMILES | phosphate solubilization effect compared to the original AB09 molecule
1 | CC1=CC(Oc2cc(C)oc(=O)c2)OC1=O (stereo not drawn) [SA-004] | enhanced phosphate solubilization effect
2 | CC1=C(C)C(Oc2c(C)occc2=O)OC1=O (stereo not drawn) [SA-002] | enhanced phosphate solubilization effect
3 | CCc1occc(=O)c1OC1C=C(C)C(=O)O1 (stereo not drawn) [SA-005] | did not differ from AB09
